Data: patent US10988523B2, “Modified lipidated Relaxin B chain peptides and their therapeutic use” (Sanofi, priority 2018, dated 2021)
*1 amine or outer side, *2 acyl side, *3 side chain or, on linkers, in order; H or OH if unused. Where a SMILES comes first, the peptide text is derived from it. Side-chain parts run from the residue outwards. [ ]: non-standard residue; d: D form. The star is where a group is joined. X15 = CCCCCCCCCCCCCCCCCC(=O)N[C@@H](CCC(=O)N[C@@H](CCC(=O)N[C@@H](CCC(=O)NCCCOCCOCCOCCCNC(=O)COCC(=O)NCCCOCCOCCOCCCNC(=O)COCC(=O)NCCCOCCOCCOCCCNC(=O)COCC(=O)*)C(=O)O)C(=O)O)C(=O)O; PEG12 = NCCOCCOCCOCCOCCOCCOCCOCCOCCOCCOCCOCCOCCC(=O)O; Arg(Me2s) = CN=C(NC)NCCC[C@H](N)C(=O)O; γGlu = O=C(O)[C@H](CCC(=O)[*:2])N[*:1]; Stearoyl = CCCCCCCCCCCCCCCCCC(=O)*; Palmitoyl = CCCCCCCCCCCCCCCC(=O)*; αMeK = C[C@](N)(CCCCN)C(=O)O; Nle = CCCC[C@H](N)C(=O)O; AEEA = NCCOCCOCC(=O)O; Aib = CC(C)(N)C(=O)O

Target: T1, RXFP1 (Homo sapiens, UniProt Q9HBX9)
T1 construct: OVCAR5 cells expressing endogenous RXFP1; endogenous in cells; host or cells: OVCAR5 cells
T1 sequence (Q9HBX9 1-757): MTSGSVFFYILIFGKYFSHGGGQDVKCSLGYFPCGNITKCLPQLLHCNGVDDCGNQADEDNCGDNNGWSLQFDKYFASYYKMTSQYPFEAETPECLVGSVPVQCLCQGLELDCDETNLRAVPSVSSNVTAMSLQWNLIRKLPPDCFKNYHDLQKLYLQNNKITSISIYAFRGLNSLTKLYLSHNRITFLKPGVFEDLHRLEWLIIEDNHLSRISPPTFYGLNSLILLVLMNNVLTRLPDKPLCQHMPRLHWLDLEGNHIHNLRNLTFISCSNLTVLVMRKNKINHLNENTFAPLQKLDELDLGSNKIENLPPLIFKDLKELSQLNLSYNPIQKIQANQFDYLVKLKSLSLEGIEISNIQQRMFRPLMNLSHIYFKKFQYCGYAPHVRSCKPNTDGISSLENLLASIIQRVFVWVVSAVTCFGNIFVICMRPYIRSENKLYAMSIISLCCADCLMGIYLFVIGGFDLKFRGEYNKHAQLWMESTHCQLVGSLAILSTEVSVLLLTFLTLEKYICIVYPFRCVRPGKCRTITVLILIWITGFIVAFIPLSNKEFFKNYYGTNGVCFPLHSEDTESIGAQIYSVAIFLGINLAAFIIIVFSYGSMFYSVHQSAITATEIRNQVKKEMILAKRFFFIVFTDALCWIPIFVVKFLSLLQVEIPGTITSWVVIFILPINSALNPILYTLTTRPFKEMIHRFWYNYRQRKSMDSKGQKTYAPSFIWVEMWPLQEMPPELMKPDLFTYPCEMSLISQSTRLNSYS
Assay: OVCAR5 cAMP assay (HTRF), RXFP1 agonist activity
Assay type: cell-based
Details: for Emax: OVCAR-5, maximal cAMP relative to H2-relaxin maximum (100%), read-out: EMax, OVCAR 5 cells (cAMP); for EC50: OVCAR5 cells, cAMP HTRF, read-out: EC50 (nM), OVCAR 5 cells (cAMP)
Source text: OVCAR5 cells expressing endogenous RXFP1 were used to test RXP1 agonist properties of peptides of the invention, and in particular of the peptides of sequence SEQ ID NO: 1-193.
Since RXFP1 is a Gs coupled GPCR, cAMP was used as readout of RXFP1 activation.
Isobutyl Methyl Xanthine (IBMX) was used to inhibit phosphodiesterase activity facilitating cAMP measurements. HTRF (Homogenous Time Resolved Fluorescence) technology was used to detect cAMP due to its great sensitivity.
In summary, OVCAR5 were grown in regular medium (RPMI) containing 10% fetal calf serum (FCS) and 1% antibiotics (penicillin/streptomycin).
Before the experiments, cells were detached with accutase and incubated for 40 minutes at 37° C. with 1 mM (3-isobutyl-1-methylxanthine) IBMX.
Cells were then distributed in 384 black well plates containing increasing concentrations of the different peptides in a fix volume of medium (without FCS).
After an incubation of 30 min at 37° C. in an humid incubator in 5% CO2, the reaction was stopped by adding a fixed volume of a solution containing a lysis buffer and cAMP-D2 (cAMP labeled with the dye d2) and the anti cAMP antibody linked to Europium and used for cAMP detection.
Readout of the experiment were performed on a fluorimeter allowing HTRF measurement. Activation curves were generated by plotting the intracellular value of cAMP versus log 10 of the compound concentration.
The 50% activation concentration (EC50) was calculated by nonlinear regression using the sigmoidal dose-response (variable slope) equation with Prism 5 software.
Emax % is determined as the maximal intracellular value of cAMP for test compound (upper limit of cAMP vs concentration curve) divided by the maximal intracellular value of cAMP for H2-relaxin determined in the same test occasion multiplied by 100. Emax %=100×[cAMPtest cpd]/[cAMPH2-RlX]

Structure (SMILES)	Emax	EC50
CCCCCCCCCCCCCCCCCC(=O)N[C@@H](CCC(=O)N[C@@H](CCC(=O)N[C@@H](CCC(=O)NCCOCCOCC(=O)NCCOCCOCC(=O)NCCOCCOCC(=O)NCCCC[C@H](NC(=O)[C@H](CCCCN)NC(=O)[C@H](CCCNC(=N)N)NC(=O)C(C)(C)NC(=O)[C@H](CO)NC(=O)[C@H](Cc1c[nH]c2ccccc12)NC(=O)[C@@H](NC(=O)[C@H](CO)NC(=O)[C@H](CCCC)NC(=O)CNC(=O)[C@H](CCC(=O)O)NC(=O)C(C)(C)NC(=O)C(C)(C)NC(=O)[C@@H](NC(=O)[C@H](CCCCNC(C)=O)NC(=O)[C@H](C)NC(=O)[C@H](CCCNC(=N)N)NC(=O)[C@@H](NC(=O)[C@H](CCCCN)NC(=O)[C@H](CCC(=O)O)NC(=O)[C@H](CCCNC(=N)N)NC(=O)CNC(=O)[C@H](CCC(=O)O)NC(=O)[C@H](CC(C)C)NC(C)=O)C(C)C)[C@@H](C)CC)[C@@H](C)O)C(N)=O)C(=O)O)C(=O)O)C(=O)O [compound 83] (Ac-LEGREKVRAK(Ac)I[Aib][Aib]EG[Nle]STWS[Aib]RKK([AEEA-AEEA-AEEA-γGlu-γGlu-γGlu-Stearoyl])-NH2)	92%	–
CCCCCCCCCCCCCCCC(=O)N[C@@H](CCC(=O)N[C@@H](CCC(=O)N[C@@H](CCC(=O)N[C@@H](CCC(=O)NCCCC[C@H](NC(=O)COCCOCCNC(=O)COCCOCCNC(=O)COCCOCCNC(=O)COCCOCCNC(=O)[C@H](CCCCNC(C)=O)NC(=O)[C@H](CCCCN)NC(=O)[C@H](CCCNC(=N)N)NC(=O)[C@](C)(CCCCN)NC(=O)[C@H](CO)NC(=O)[C@H](Cc1ccccc1)NC(=O)[C@@H](NC(=O)[C@H](CO)NC(=O)[C@H](CCCC)NC(=O)CNC(=O)[C@H](CCC(=O)O)NC(=O)C(C)(C)NC(=O)C(C)(C)NC(=O)[C@@H](NC(=O)[C@H](CCCCNC(C)=O)NC(=O)[C@H](C)NC(=O)[C@H](CCCNC(=N)N)NC(=O)[C@@H](NC(=O)[C@H](CCCCN)NC(=O)[C@H](CCC(=O)O)NC(=O)[C@H](CCCNC(=N)N)NC(=O)CNC(=O)[C@H](CCC(=O)O)NC(=O)[C@H](CC(C)C)NC(C)=O)C(C)C)[C@@H](C)CC)[C@@H](C)O)C(N)=O)C(=O)O)C(=O)O)C(=O)O)C(=O)O [compound 143] (Ac-LEGREKVRAK(Ac)I[Aib][Aib]EG[Nle]STFS[αMeK]RKK(Ac)[AEEA][AEEA][AEEA][AEEA]K([γGlu-γGlu-γGlu-γGlu-Palmitoyl])-NH2)	88%	0.4 nM
CCCCCCCCCCCCCCCC(=O)N[C@@H](CCC(=O)N[C@@H](CCC(=O)N[C@@H](CCC(=O)N[C@@H](CCC(=O)NCCCC[C@H](NC(=O)CCOCCOCCOCCOCCOCCOCCOCCOCCOCCOCCOCCOCCNC(=O)[C@H](CCCCNC(C)=O)NC(=O)[C@H](CCCCN)NC(=O)[C@H](CCCNC(=N)N)NC(=O)[C@](C)(CCCCN)NC(=O)[C@H](CO)NC(=O)[C@H](Cc1c[nH]c2ccccc12)NC(=O)[C@@H](NC(=O)[C@H](CO)NC(=O)[C@H](CCCC)NC(=O)CNC(=O)[C@H](CCC(=O)O)NC(=O)C(C)(C)NC(=O)C(C)(C)NC(=O)[C@@H](NC(=O)[C@H](CCCCNC(C)=O)NC(=O)[C@H](C)NC(=O)[C@H](CCCNC(=N)N)NC(=O)[C@@H](NC(=O)[C@H](CCCCN)NC(=O)[C@H](CCC(=O)O)NC(=O)[C@H](CCCNC(=N)N)NC(=O)CNC(=O)[C@H](CCC(=O)O)NC(=O)[C@H](CC(C)C)NC(C)=O)C(C)C)[C@@H](C)CC)[C@@H](C)O)C(N)=O)C(=O)O)C(=O)O)C(=O)O)C(=O)O [compound 43] (Ac-LEGREKVRAK(Ac)I[Aib][Aib]EG[Nle]STWS[αMeK]RKK(Ac)[PEG12]K([γGlu-γGlu-γGlu-γGlu-Palmitoyl])-NH2)	106%	0.14 nM
CCCCCCCCCCCCCCCC(=O)N[C@@H](CCC(=O)N[C@@H](CCC(=O)N[C@@H](CCC(=O)N[C@@H](CCC(=O)NCCOCCOCC(=O)NCCOCCOCC(=O)NCCOCCOCC(=O)NCCOCCOCC(=O)NCCCC[C@H](NC(=O)[C@H](CCCCNC(C)=O)NC(=O)[C@H](C)NC(=O)[C@H](CCCNC(=N)N)NC(=O)[C@](C)(CCCCN)NC(=O)[C@H](CO)NC(=O)[C@H](Cc1ccccc1)NC(=O)[C@@H](NC(=O)[C@H](CO)NC(=O)[C@H](CCC(N)=O)NC(=O)CNC(=O)[C@H](CCC(=O)O)NC(=O)C(C)(C)NC(=O)C(C)(C)NC(=O)[C@@H](NC(=O)[C@H](CCCCNC(C)=O)NC(=O)[C@H](C)NC(=O)[C@H](CCCNC(=N)N)NC(=O)[C@@H](NC(=O)[C@H](CCCCN)NC(=O)[C@H](CCC(=O)O)NC(=O)[C@H](CCCNC(=N)N)NC(=O)CNC(=O)[C@H](CCC(=O)O)NC(=O)[C@H](CC(C)C)NC(C)=O)C(C)C)[C@@H](C)CC)[C@@H](C)O)C(N)=O)C(=O)O)C(=O)O)C(=O)O)C(=O)O [compound 191] (Ac-LEGREKVRAK(Ac)I[Aib][Aib]EGQSTFS[αMeK]RAK(Ac)K([AEEA-AEEA-AEEA-AEEA-γGlu-γGlu-γGlu-γGlu-Palmitoyl])-NH2)	93%	0.17 nM
CCCCCCCCCCCCCCCCCC(=O)N[C@@H](CCC(=O)N[C@@H](CCC(=O)N[C@@H](CCC(=O)NCCOCCOCC(=O)NCCOCCOCC(=O)NCCOCCOCC(=O)NCCCC[C@H](NC(=O)[C@H](CCCCNC(C)=O)NC(=O)[C@H](CCCCN)NC(=O)[C@H](CCCNC(=NC)NC)NC(=O)C(C)(C)NC(=O)[C@H](CO)NC(=O)[C@H](Cc1c[nH]c2ccccc12)NC(=O)[C@@H](NC(=O)[C@H](CO)NC(=O)[C@H](CCCC)NC(=O)CNC(=O)[C@H](CCC(=O)O)NC(=O)C(C)(C)NC(=O)C(C)(C)NC(=O)[C@@H](NC(=O)[C@H](CCCCNC(C)=O)NC(=O)[C@H](C)NC(=O)[C@H](CCCNC(=N)N)NC(=O)[C@@H](NC(=O)[C@H](CCCCN)NC(=O)[C@H](CCC(=O)O)NC(=O)[C@H](CCCNC(=N)N)NC(=O)CNC(=O)[C@H](CCC(=O)O)NC(=O)[C@H](CC(C)C)NC(C)=O)C(C)C)[C@@H](C)CC)[C@@H](C)O)C(N)=O)C(=O)O)C(=O)O)C(=O)O [compound 148] (Ac-LEGREKVRAK(Ac)I[Aib][Aib]EG[Nle]STWS[Aib][Arg(Me2s)]KK(Ac)K([AEEA-AEEA-AEEA-γGlu-γGlu-γGlu-Stearoyl])-NH2)	94%	–
CCCCCCCCCCCCCCCCCC(=O)N[C@@H](CCC(=O)N[C@@H](CCC(=O)N[C@@H](CCC(=O)NCCCOCCOCCOCCCNC(=O)COCC(=O)NCCCOCCOCCOCCCNC(=O)COCC(=O)NCCCOCCOCCOCCCNC(=O)COCC(=O)NCCCC[C@H](NC(=O)[C@H](CCCCNC(C)=O)NC(=O)[C@H](CCCCN)NC(=O)[C@H](CCCNC(=N)N)NC(=O)C(C)(C)NC(=O)[C@H](CO)NC(=O)[C@H](Cc1c[nH]c2ccccc12)NC(=O)[C@@H](NC(=O)[C@H](CO)NC(=O)[C@H](CCCC)NC(=O)CNC(=O)[C@H](CCC(=O)O)NC(=O)C(C)(C)NC(=O)C(C)(C)NC(=O)[C@@H](NC(=O)[C@H](CCCCNC(C)=O)NC(=O)[C@H](C)NC(=O)[C@H](CCCNC(=N)N)NC(=O)[C@@H](NC(=O)[C@H](CCCCN)NC(=O)[C@H](CCC(=O)O)NC(=O)[C@H](CCCNC(=N)N)NC(=O)CNC(=O)[C@H](CCC(=O)O)NC(=O)[C@H](CC(C)C)NC(C)=O)C(C)C)[C@@H](C)CC)[C@@H](C)O)C(N)=O)C(=O)O)C(=O)O)C(=O)O [compound 96] (Ac-LEGREKVRAK(Ac)I[Aib][Aib]EG[Nle]STWS[Aib]RKK(Ac)K(X15)-NH2)	89%	–
